Activity calls are given as the source filed them. The rule behind the calls is not given here. Bounds are passed on as bounds.

A word on the IC50: it is the concentration that inhibits the measured activity by half.

In one experiment the target is T1, Caspase-3 (Homo sapiens, UniProt P42574).
T1 sequence (P42574 whole entry): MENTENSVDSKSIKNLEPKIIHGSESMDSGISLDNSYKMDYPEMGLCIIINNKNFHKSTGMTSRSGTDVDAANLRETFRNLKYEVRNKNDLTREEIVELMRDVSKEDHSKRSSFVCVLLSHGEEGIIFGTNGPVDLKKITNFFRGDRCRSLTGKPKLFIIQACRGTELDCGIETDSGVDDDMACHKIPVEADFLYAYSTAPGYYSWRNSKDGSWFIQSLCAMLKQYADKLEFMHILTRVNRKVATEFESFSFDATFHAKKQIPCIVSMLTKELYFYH
Briefly: Inhibition of His-tagged human recombinant caspase 3 expressed in Escherichia coli using acetyl-Asp-Glu-Val-Asp-7- amido-4-methylcoumarin (Ac-DEVD-AMC) as substrate by fluorimetric assay.

The next experiment has as its target T2, Caspase-7 (Homo sapiens, UniProt P55210).
T2 sequence (P55210 whole entry): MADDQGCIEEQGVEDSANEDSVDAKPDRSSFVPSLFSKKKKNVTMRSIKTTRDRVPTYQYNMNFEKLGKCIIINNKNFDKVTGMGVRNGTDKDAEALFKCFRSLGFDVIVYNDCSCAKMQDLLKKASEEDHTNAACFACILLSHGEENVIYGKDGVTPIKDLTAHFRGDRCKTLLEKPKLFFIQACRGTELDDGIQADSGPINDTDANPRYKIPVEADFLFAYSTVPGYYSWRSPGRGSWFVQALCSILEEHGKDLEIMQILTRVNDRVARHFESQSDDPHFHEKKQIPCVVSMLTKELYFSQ
Briefly: Inhibition of His-tagged human recombinant caspase 7 expressed in Escherichia coli using acetyl-Asp-Glu-Val-Asp-7- amido-4-methylcoumarin (Ac-DEVD-AMC) as substrate by fluorimetric assay.

Experiment [1] deals with Rattus norvegicus. Briefly: Neuroprotective activity in hypoxic-ischemic ip dosed neonatal Sprague-Dawley rat brain assessed as increase in CAT levels administered 15 mins prior to examination measured after 48 hrs by microplate reader based method. The format is functional, organism-based.
Experiment [2] concerns Rattus norvegicus. The experiment can be described thus: Neuroprotective activity in hypoxic-ischemic Sprague-Dawley rat brain assessed as reduction in disruption of cell organelles at 30 mg/kg, ip administered 15 mins prior to examination measured after 48 hrs by transmission electron microscopic analysis. The format is functional, organism-based.
Experiment [3] deals with Rattus norvegicus. Briefly: Neuroprotective activity in hypoxic-ischemic neonatal Sprague-Dawley rat brain assessed as distribution of neurons in cortex at 30 mg/kg, ip administered 15 mins prior to examination measured after 48 hrs by hematoxylin/eosin staining based microscopic analysis. The class given is functional, organism-based.
The subject of experiment [4] is Rattus norvegicus. The experiment can be described thus: Neuroprotective activity in hypoxic-ischemic neonatal Sprague-Dawley rat brain assessed as reduction in interstitial edema at 30 mg/kg, ip administered 15 mins prior to examination measured after 48 hrs by hematoxylin/eosin staining based microscopic analysis. The class given is functional, organism-based.
For experiment [5], the species on record is Rattus norvegicus. The settings on record: Sprague-Dawley, Brain, 30 mg/kg.
Description: Neuroprotective activity in hypoxic-ischemic neonatal Sprague-Dawley rat brain assessed as inhibition of elevated caspase 3 expression levels at 30 mg/kg, ip administered 15 mins prior to examination measured after 48 hrs by Western blot analysis
The test system of experiment [6] is Rattus norvegicus. Briefly: Neuroprotective activity in hypoxic-ischemic ip dosed neonatal Sprague-Dawley rat brain assessed as increase in SOD levels administered 15 mins prior to examination measured after 48 hrs by microplate reader based method. The format is functional, organism-based.
Experiment [7] concerns Rattus norvegicus. Briefly: Neuroprotective activity in hypoxic-ischemic-induced neonatal Sprague-Dawley rat brain assessed as reduction brain infarction at 30 mg/kg, ip administered 15 mins prior to examination by microscopic analysis. The format is functional, organism-based.
Experiment [8] deals with Rattus norvegicus. The experiment can be described thus: Neuroprotective activity in hypoxic-ischemia-induced neonatal Sprague-Dawley rat brain assessed as reduction brain infarction at 20 mg/kg, ip administered 15 mins prior to examination by microscopic analysis. The class given is functional, organism-based.
Experiment [9] deals with Rattus norvegicus. The experiment can be described thus: Neuroprotective activity in hypoxic-ischemic ip dosed neonatal Sprague-Dawley rat brain assessed as increase in GSH-Px levels administered 15 mins prior to examination measured after 48 hrs by microplate reader based method. The class given is functional, organism-based.
The subject of experiment [10] is Rattus norvegicus. The experiment can be described thus: Neuroprotective activity in hypoxic-ischemic ip dosed neonatal Sprague-Dawley rat brain assessed as increase in T-AOC levels administered 15 mins prior to examination measured after 48 hrs by microplate reader based method. The class given is functional, organism-based.
Experiment [11] deals with Rattus norvegicus. The experiment can be described thus: Neuroprotective activity in hypoxic-ischemic ip dosed neonatal Sprague-Dawley rat brain assessed as decrease in MDA levels administered 15 mins prior to examination measured after 48 hrs by thiobarbituric acid method. The class given is functional, organism-based.
Experiment [12] relates to Rattus norvegicus. Briefly: Neuroprotective activity in hypoxic-ischemia-induced neonatal Sprague-Dawley rat brain assessed as reduction brain infarction at 10 mg/kg, ip administered 15 mins prior to examination by microscopic analysis. The format is functional, organism-based.
Experiment [13] concerns Rattus norvegicus. Briefly: Neuroprotective activity in hypoxic-ischemic Sprague-Dawley rat brain assessed as regular shape of nucleus at 30 mg/kg, ip administered 15 mins prior to examination measured after 48 hrs by transmission electron microscopic analysis. The format is functional, organism-based.

As for `Cc1ccccc1-c1ccc(C(=O)N/N=C2\C(=O)N(C)c3ccccc32)c(C)n1`, the IC50 on Caspase-3 worked out at 351 µM.

`Cc1nc(-c2ccc(Br)cc2)ccc1C(=O)N/N=C1\C(=O)N(C)c2ccccc21`: on Caspase-3, the IC50 came out at 122 µM.

As for `COc1ccccc1-c1ccc(C(=O)N/N=C2\C(=O)N(C)c3ccccc32)c(C)n1`, the IC50 was 552 µM on Caspase-3 and greater than 200 µM on Caspase-7.

Take `Cc1nc(-c2ccccc2[N+](=O)[O-])ccc1C(=O)N/N=C1\C(=O)N(C)c2ccccc21`: the IC50 at Caspase-3 is 297 µM; at Caspase-7 it was greater than 200 µM.

As to `Cc1ccc(-c2ccc(C(=O)N/N=C3\C(=O)N(C)c4ccccc43)c(C)n2)cc1`, the IC50 at Caspase-3 is 375 µM.

As for `Cc1nc(-c2cccc(Br)c2)ccc1C(=O)N/N=C1\C(=O)N(C)c2ccccc21`, on Caspase-3, the IC50 was found to be 130 µM.

On to `COc1ccc(-c2ccc(C(=O)N/N=C3\C(=O)N(C)c4ccccc43)c(C)n2)cc1`, for which the 50% inhibitory concentration (IC50) at Caspase-3 is 487 µM; at Caspase-7 it was greater than 200 µM.

For the compound `COc1cc(-c2ccc(C(=O)N/N=C3\C(=O)N(C)c4ccccc43)c(C)n2)cc(OC)c1OC`, the IC50 at Caspase-3 worked out at 674 µM.

As for `CC(=O)N[C@@H](CC(=O)O)C(=O)N[C@@H](CCC(=O)O)C(=O)N[C@H](C(=O)N[C@H](C=O)CC(=O)O)C(C)C`, the IC50 at Caspase-7 stood at 0.0604 µM.

As to `Cc1nc(-c2ccc([N+](=O)[O-])cc2)ccc1C(=O)N/N=C1\C(=O)N(C)c2ccccc21`, the IC50 on Caspase-3 stood at 202 µM.

Consider `COc1cccc(-c2ccc(C(=O)N/N=C3\C(=O)N(C)c4ccccc43)c(C)n2)c1`, for which the IC50 is 547 µM at Caspase-3 and greater than 200 µM on Caspase-7.

Take `Cc1nc(-c2ccccc2)ccc1C(=O)N/N=C1\C(=O)N(C)c2ccccc21`: the IC50 at Caspase-3 turned out to be 456 µM.

`COc1ccc(-c2ccc(C(=O)N/N=C3\C(=O)N(C)c4ccccc43)c(C)n2)cc1OC`: the IC50 at Caspase-3 was 599 µM; on Caspase-7, greater than 200 µM.

Regarding `Cc1nc(-c2cccc(Cl)c2)ccc1C(=O)N/N=C1\C(=O)N(C)c2ccccc21`, the IC50 on Caspase-7 is greater than 200 µM.

In the case of `Cc1nc(-c2cccc([N+](=O)[O-])c2)ccc1C(=O)N/N=C1\C(=O)N(C)c2ccccc21`, at Caspase-3, the IC50 turned out to be 278 µM.

`Cc1nc(-c2ccc(F)cc2)ccc1C(=O)N/N=C1\C(=O)N(C)c2ccccc21`: the Activity result in the experiment with Rattus norvegicus [1], in the experiment on Rattus norvegicus [6], in the experiment on Rattus norvegicus [9] and with Rattus norvegicus [10] was “Dose-dependent effect” each time. Besides, the outcome in the experiment on Rattus norvegicus [2], in the experiment on Rattus norvegicus [3], with Rattus norvegicus [4], in the experiment on Rattus norvegicus [7], in the experiment with Rattus norvegicus [8] and in the experiment with Rattus norvegicus [11] was Active. The result in the experiment on Rattus norvegicus [12] and in the experiment on Rattus norvegicus [13] was Active. Also, in the experiment filed under Rattus norvegicus [5], the inhibition result was “Active”. In addition, the IC50 on Caspase-7 is greater than 200 µM.

As to `Cc1nc(-c2ccccc2Br)ccc1C(=O)N/N=C1\C(=O)N(C)c2ccccc21`, the IC50 at Caspase-3 is 132 µM.

Consider `Cc1cccc(-c2ccc(C(=O)N/N=C3\C(=O)N(C)c4ccccc43)c(C)n2)c1`, for which, on Caspase-3, the IC50 came to 310 µM.

These data come from ChEMBL document CHEMBL3804780, “Protective effect of novel substituted nicotine hydrazide analogues against hypoxic brain injury in neonatal rats via inhibition of caspase” (Bioorg Med Chem Lett, 2016).
